Results on six molecules are retold here after patent US12459914B2, “Compounds and compositions for the treatment of tumors” (FONDAZIONE ISTITUTO ITALIANO DI TECNOLOGIA, priority 2019, dated 2025).

Experiment [1] relates to BxPC-3 cells. Kind of experiment: Cell viability assay (CellTiter Glo). The note with it: Homo sapiens, 72 h. The format is cell-based. A general note: Cellular ATP, detected with luciferase, serves as a proxy for viable cell number.
In experiment [2] the test system is BxPC-3 cells. Kind of experiment: Association with olaparib (given alone or in combination), cell viability / cytotoxicity. It counts as cell-based. The note with it: olaparib 10 μM, 72 h. As to the method: BxPC-3 cells were grown in RPMI 1640 containing 10% FBS, 100 U/ml penicillin/streptomycin, 2 mM glutamine. All media and supplements were from Sigma-Aldrich. Cultures were routinely tested for Mycoplasma contamination. Treatments (Olaparib and BRCA2-Rad51 disruptors) were administered in culture medium supplemented with 0.6% DMSO. The same amount of DMSO was added to the control, untreated cultures.
Cell viability was assessed by CellTiter Glo, Luminescent Cell Viability Assay. Briefly, BxPC-3 cells (1×10^4/well) were plated in white 96-well plates with clear bottom and treated for 72 h with olaparib (10 μM) or with the BRCA2-Rad51 disruptors, given alone or in combination. After treatments, the plate was allowed to equilibrate at room temperature for 30 min and the CellTiter-Glo reactive was directly added to each well. The plate was kept on a shaker for 2 min to induce cell lysis and its luminescence was measured by using a Fluoroskan Ascent FL reader (Labsystems) using manufacturer's instructions.
Cell death was assessed by applying the CellTox™ Green Cytotoxicity assay (Promega). Briefly, BxPC-3 (1×10^4/well) were plated in black 96-well plates with clear bottom and treated for 72 h with olaparib (10 μM) or with the BRCA2-Rad51 disruptors, given alone or in combination. At the end of treatment, the CellTox™ dye was added to cell cultures and the green fluorescence signal, which is produced by the binding interaction with dead cell DNA, was measured following the manufacturer's instructions. The fluorescence signal was detected using the EnSpire 2300 Multilabel Reader (Perkin Elmer); for each sample, the obtained signal was normalized on the number of viable cells, detected by the CellTiterGlo reagent.

The subject of experiment [3] is Homologous recombination (HR) in BxPC3 cells. In words: Homologous recombination assay (HR). The format is cell-based. The note with it: Homo sapiens; for inhibition at 20 µM: BXPC-3, at 20 μM. As to the method: Homologous recombination (HR) was assessed by using a commercially available assay (Norgen). This assay is based on cell co-transfection with two plasmids that, upon cells entering, recombinate. The efficiency of HR can be assessed by real time PCR, using primer mixtures included in the assay kit. Different primer mixtures allow differentiation between the original plasmid backbones and their recombination product.
BxPC3 cells (2×10^3 per well) were seeded in a 24-well plate and allowed to adhere overnight. Co-transfection with the two plasmids was performed in Lipofectamine 2000 (Invitrogen) for 5 h, according to the manufacturer's instructions. During transfection cells were exposed at different doses of BRCA2-Rad51 disruptors, dissolved in RPMI without serum in the presence of 0.6% DMSO.
After washing with PBS, cells were harvested, and DNA was isolated using QIAamp® DNA Mini Kit (Qiagen). Sample concentration was measured using an ONDA Nano Genius photometer.
The thermal cycler (CFX96 ™ Real Time System, BioRad) was programmed as follows: initial denaturation 95° C. for 3 min then 95° C. for 15 sec., 61° C. for 30 sec., 72° C. for 1 min and repeated for 40 cycles. Melt curve analysis was done. Samples were run in triplicate, in 10 μl reaction volume containing 25 ng of template.
In each DNA sample from control and treated cultures, the ΔCt between the recombination product and the backbone plasmids was calculated. HR efficiency was evaluated from the 2^−ΔΔ^Ct value obtained by comparing treated vs control samples.

The target of the next experiment is T1, BRC4/RAD51 interaction (Homo sapiens, UniProt Q06609).
T1 construct: purchased Creative Biomart (Rad51); Life Technologies (BRC4 peptide)
T1 sequence (Q06609 1-339): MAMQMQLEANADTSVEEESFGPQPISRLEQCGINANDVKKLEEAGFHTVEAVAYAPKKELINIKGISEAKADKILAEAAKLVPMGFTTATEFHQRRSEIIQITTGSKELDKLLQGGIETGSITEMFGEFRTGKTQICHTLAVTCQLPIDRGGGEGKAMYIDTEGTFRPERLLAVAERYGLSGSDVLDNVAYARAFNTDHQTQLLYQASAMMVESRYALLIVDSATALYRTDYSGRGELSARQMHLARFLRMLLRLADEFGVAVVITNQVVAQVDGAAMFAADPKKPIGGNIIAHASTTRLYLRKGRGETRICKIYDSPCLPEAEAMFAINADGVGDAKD
In words: Competitive ELISA assay, disruption of BRC4/RAD51 interaction. The format is binding. The note with it: human Rad51, biotinylated BRC4 peptide. The procedure, abridged:
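Competitive ELISA: plates coated with biotinylated BRC4 peptide, blocked with 1% BSA/PBST, then hybridized overnight with human Rad51 protein. Compounds tested in triplicate dose-response, […], 1% DMSO. Bound Rad51 detected colorimetrically with anti-Rad51 antibody, HRP secondary and TMB quenched with HCl.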
(ELISA stands for enzyme-linked immunosorbent assay.)

On to `CCn1cc2cc(-c3ccc(C4CC(c5c(-c6ccccc6)c6cc(Cl)ccc6[nH]c5=O)=NN4C(=O)CCC(=O)O)cc3)ccc2n1` (stereo not shown) [d.46, 4-[5-(6-chloro-2-oxo-4-phenyl-1H-quinolin-3-yl)-3-[4-(2-ethylindazol-5-yl)phenyl]-3,4-dihydropyrazol-2-yl]-4-oxo-butanoic acid], for which the values for the EC50 in the experiment on BxPC-3 cells [1] and on BRC4/RAD51 interaction were 44 µM and 17 µM, respectively. Further, the “Olaparib Assoc.” value in the experiment on BxPC-3 cells [2] is recorded as “synergy”. The inhibition (in general, the change of the read-out against control, counted positive when it falls) at 40 µM in experiment [3] (BXPC-3, at 40 μM) was found to be 91.7%.
As to `COc1ccc(C2CC(c3c(Cc4ccccc4)c4cc(Cl)ccc4[nH]c3=O)=NN2C(=O)CCC(=O)O)cc1F` (stereo not shown) [d.66, 4-[5-(4-benzyl-6-chloro-2-oxo-1H-quinolin-3-yl)-3-(3-fluoro-4-methoxy-phenyl)-3,4-dihydropyrazol-2-yl]-4-oxo-butanoic acid], the figures for the EC50 in the experiment on BxPC-3 cells [1] and on BRC4/RAD51 interaction were 79.2 µM and 25 µM, respectively. Also, the inhibition at 20 µM in experiment [3] was found to be 6.15%.
For `O=C(O)CCC(=O)N1N=C(c2c(-c3ccccc3)c3cc(Cl)ccc3[nH]c2=O)CC1c1cccnc1` (stereo not shown) [d.98, 4-(3-(6-chloro-2-oxo-4-phenyl-1,2-dihydroquinolin-3-yl)-5-(pyridin-3-yl)-4,5-dihydro-1H-pyrazol-1-yl)-4-oxobutanoic acid] the same measures were 144 µM, 75 µM and 22%.
In the case of `O=C(O)CCC(=O)N1N=C(c2c(Cc3ccccc3)c3cc(Cl)ccc3[nH]c2=O)CC1c1ccc(-c2ccc(Cl)cc2)cc1` (stereo not shown) [d.84, 4-[5-(4-benzyl-6-chloro-2-oxo-1H-quinolin-3-yl)-3-[4-(4-chlorophenyl)phenyl]-3,4-dihydropyrazol-2-yl]-4-oxo-butanoic acid], the EC50 (in general, the midpoint of the concentration-response curve) with BxPC-3 cells [1] amounted to 28.4 µM; on BRC4/RAD51 interaction it was 90 µM. The inhibition at 20 µM in experiment [3] came to 21.7%.
For `Cn1ccc2cc(C3CC(c4c(-c5ccccc5)c5cc(Cl)ccc5[nH]c4=O)=NN3C(=O)CCC(=O)O)ccc21` (stereo not shown) [d.22, 4-[5-(6-chloro-2-oxo-4-phenyl-1H-quinolin-3-yl)-3-(1-methylindol-5-yl)-3,4-dihydropyrazol-2-yl]-4-oxo-butanoic acid], the values for the EC50 in the experiment with BxPC-3 cells [1] and on BRC4/RAD51 interaction were greater than 20 µM and 2 µM, respectively. For the same molecule, the “Olaparib Assoc.” value with BxPC-3 cells [2] is given as “synergy”.
`CCCn1ncc2cc(C3CC(c4c(-c5ccccc5)c5cc(Cl)ccc5[nH]c4=O)=NN3C(C)=O)ccc21` (stereo not shown) [d.34, 3-[2-acetyl-3-(1-propylindazol-5-yl)-3,4-dihydropyrazol-5-yl]-6-chloro-4-phenyl-1H-quinolin-2-one]: the EC50 is 11 µM with BxPC-3 cells [1] and 0.95 µM on BRC4/RAD51 interaction. In experiment [3] (BXPC-3, at 5 μM), the inhibition at 5 µM was found to be 83%.
